# Results published in EPA's ToxRefDB 2.
# Legend:
# dog [1] = settings: Chronic toxicity; beagle; Oral; Feed; dose end: 52 week; group: systemic; systemic / in life observation / body weight / body weight gain + systemic / organ weight / heart / absolute + systemic / organ weight / …
# rat [2] = settings: Combined chronic toxicity/carcinogenicity, sprague dawley, Oral, Feed, dose end: 104 week, group: systemic
# dog [3] = settings: Subchronic oral toxicity in nonrodent, beagle, Feed, dose end: 13 week
# rat [4] = settings: Combined chronic toxicity/carcinogenicity, sprague dawley, Oral, Feed, dose end: 24 month
# rat [5] = settings: Multigenerational reproductive toxicity study, other, Oral, Feed, dose end: 2 generation
# rat [6] = settings: Subchronic oral toxicity in rodents, sprague dawley, Feed, dose end: 13 week
# mouse [7] = settings: Subchronic oral toxicity in rodents, cd1, Feed, dose end: 90 day, group: cholinesterase
# dog [8] = settings: Chronic toxicity, beagle, Oral, Feed, dose end: 52 week, group: cholinesterase
# rabbit = settings: Prenatal developmental toxicity study, new zealand white, Oral, Gavage/Intubation, dose end: 19 GD
# mouse [9] = settings: Carcinogenicity, cd1, Oral, Feed, dose end: 78 week
# rat [10] = settings: Multigenerational reproductive toxicity study, sprague dawley, Oral, Feed, dose end: 2 generation
# mouse [11] = settings: Carcinogenicity; cd1; Oral; Feed; dose end: 18 month; group: systemic; systemic / hematology / erythrocyte (rbc) count differential / erythrocyte (rbc) + systemic / hematology / heinz body / heinz body + …
# rat [12] = settings: Subchronic oral toxicity in rodents, sprague dawley, Feed, dose end: 90 day, group: systemic, systemic / hematology / erythrocyte (rbc) count differential / erythrocyte (rbc) + systemic / hematology / hematocrit (hct) / hematocrit (…
# dog [13] = settings: Chronic toxicity, beagle, Oral, Capsule, dose end: 52 week, group: systemic
# rat [14] = settings: Subchronic oral toxicity in rodents, sprague dawley, Feed, dose end: 90 day, group: systemic
# rat [15] = settings: Combined chronic toxicity/carcinogenicity, other, Oral, Feed, dose end: 104 week, group: systemic
# mouse [16] = settings: Subchronic oral toxicity in rodents, cd1, Feed, dose end: 90 day, group: systemic
# [17] = systemic / in life observation / body weight / body weight + systemic / clinical chemistry / phosphorus / phosphate + systemic / clinical …
# [18] = group: cholinesterase, cholinesterase / cholinesterase / cholinesterase / plasma cholinesterase (che)
# [19] = group: systemic, systemic / clinical chemistry / protein / protein + systemic / in life observation / clinical signs / emaciation + systemic / in life …
# [20] = group: cholinesterase, cholinesterase / cholinesterase / cholinesterase / erythrocyte cholinesterase (che) + cholinesterase / cholinesterase / cholinesterase / …
# [21] = group: systemic, systemic / in life observation / body weight / body weight + systemic / in life observation / body weight / body weight gain + systemic / in…
# [22] = group: offspring, systemic / in life observation / body weight / offspring (pup) weight
# [23] = group: parental, systemic / in life observation / body weight / body weight + systemic / in life observation / clinical signs / abnormal feces + systemic / …
# [24] = group: cholinesterase, cholinesterase / cholinesterase / cholinesterase / plasma cholinesterase (che) + cholinesterase / cholinesterase / cholinesterase / brain …
# [25] = group: systemic, systemic / in life observation / body weight / body weight + systemic / in life observation / food consumption / food consumption + systemic…
# [26] = cholinesterase / cholinesterase / cholinesterase / plasma cholinesterase (che) + cholinesterase / cholinesterase / cholinesterase / brain …
# [27] = cholinesterase / cholinesterase / cholinesterase / brain cholinesterase (che)
# [28] = cholinesterase / cholinesterase / cholinesterase / brain cholinesterase (che) + cholinesterase / cholinesterase / cholinesterase / …
# [29] = group: developmental, systemic / in life observation / body weight / fetal weight
# [30] = group: maternal, systemic / in life observation / body weight / body weight gain + systemic / in life observation / clinical signs / defecation + systemic / …
# [31] = group: systemic, systemic / in life observation / body weight / body weight gain + systemic / in life observation / clinical signs / pneumonia + systemic / …
# [32] = group: offspring, systemic / organ weight / spleen / absolute + systemic / organ weight / spleen / relative to body weight
# [33] = group: offspring, systemic / organ weight / spleen / absolute + systemic / organ weight / spleen / relative to body weight + systemic / organ weight / liver…
# [34] = group: parental, systemic / organ weight / spleen / absolute + systemic / organ weight / spleen / relative to body weight
# [35] = group: parental, systemic / organ weight / spleen / relative to body weight + systemic / organ weight / spleen / absolute
# [36] = group: reproductive, reproductive / offspring survival early / litter size / litter size
# [37] = systemic / hematology / jolly bodies / jolly bodies + systemic / hematology / mean corpuscular hemoglobin concentration (mchc) / mean …
# [38] = systemic / hematology / mean corpuscular hemoglobin concentration (mchc) / mean corpuscular hemoglobin concentration (mchc)
# [39] = systemic / hematology / erythrocyte (rbc) count differential / erythrocyte (rbc) + systemic / hematology / hemoglobin (hgb) / hemoglobin (…
# [40] = systemic / hematology / methemoglobin / methemoglobin + systemic / hematology / reticulocyte / reticulocyte + systemic / pathology …
# [41] = systemic / organ weight / spleen / absolute + systemic / urinalysis / volume / volume
# [42] = systemic / organ weight / spleen / absolute + systemic / organ weight / spleen / relative to body weight + systemic / hematology / …
compound,measurement,setting,value
"O=C1CC=C([O-])N=N1.[K+] [Maleic hydrazide, potassium salt]",LEL,dog [1],87 mg/kg/day
same,LOAEL,dog [1],87 mg/kg/day
same,NEL,dog [1],25 mg/kg/day
same,NOAEL,dog [1],25 mg/kg/day
same,LOAEL,rat [2]; systemic / in life observation / body weight / body weight,500 mg/kg/day
same,LEL,rat [2]; [17],500 mg/kg/day
same,NOAEL,rat [2]; [17],25 mg/kg/day
same,NEL,rat [2]; systemic / organ weight / kidney / absolute + systemic / organ weight / liver / absolute + systemic / in life observation / body weight / …,25 mg/kg/day
CCOC(=O)CSc1nc(C(C)(C)C)nn1C(=O)N(C)C [Triazamate],LEL,dog [3]; [18],0.03 mg/kg/day
same,LOAEL,dog [3]; [18],0.03 mg/kg/day
same,NEL,dog [3]; [18],< 0.03 mg/kg/day
same,NOAEL,dog [3]; [18],< 0.03 mg/kg/day
same,LOAEL,dog [3]; [19],3.11 mg/kg/day
same,NOAEL,dog [3]; [19],0.31 mg/kg/day
same,NEL,"dog [3]; group: systemic, systemic / in life observation / clinical signs / distended abdomens + systemic / in life observation / clinical signs / vomitting + …",0.03 mg/kg/day
same,LEL,"dog [3]; group: systemic, systemic / in life observation / clinical signs / vomitting",0.31 mg/kg/day
same,LEL,rat [4]; [20],11.5 mg/kg/day
same,LOAEL,rat [4]; [20],11.5 mg/kg/day
same,NEL,rat [4]; [20],0.45 mg/kg/day
same,NOAEL,rat [4]; [20],0.45 mg/kg/day
same,LEL,rat [4]; [21],59.2 mg/kg/day
same,LOAEL,rat [4]; [21],> 59.2 mg/kg/day
same,NEL,rat [4]; [21],11.5 mg/kg/day
same,NOAEL,rat [4]; [21],≥ 59.2 mg/kg/day
same,LEL,rat [5]; [20],17 mg/kg/day
same,LOAEL,rat [5]; [20],17 mg/kg/day
same,NEL,rat [5]; [20],0.7 mg/kg/day
same,NOAEL,rat [5]; [20],0.7 mg/kg/day
same,LEL,rat [5]; [22],101 mg/kg/day
same,LOAEL,rat [5]; [22],101 mg/kg/day
same,NEL,rat [5]; [22],17 mg/kg/day
same,NOAEL,rat [5]; [22],17 mg/kg/day
same,LEL,rat [5]; [23],101 mg/kg/day
same,LOAEL,rat [5]; [23],> 101 mg/kg/day
same,NEL,rat [5]; [23],17 mg/kg/day
same,NOAEL,rat [5]; [23],≥ 101 mg/kg/day
same,LEL,rat [6]; [18],31 mg/kg/day
same,LOAEL,rat [6]; [18],31 mg/kg/day
same,NEL,rat [6]; [24],3 mg/kg/day
same,NOAEL,rat [6]; [24],3 mg/kg/day
same,LOAEL,"rat [6]; group: systemic, systemic / in life observation / body weight / body weight + systemic / in life observation / food consumption / food consumption",93 mg/kg/day
same,LEL,rat [6]; [25],93 mg/kg/day
same,NEL,rat [6]; [25],31 mg/kg/day
same,NOAEL,rat [6]; [25],31 mg/kg/day
same,LOAEL,mouse [7]; cholinesterase / cholinesterase / cholinesterase / plasma cholinesterase (che),4.55 mg/kg/day
same,NEL,mouse [7]; [26],0.336 mg/kg/day
same,NOAEL,mouse [7]; [26],0.336 mg/kg/day
same,LEL,mouse [7]; cholinesterase / cholinesterase / cholinesterase / plasma cholinesterase (che) + cholinesterase / cholinesterase / cholinesterase / …,4.55 mg/kg/day
same,LEL,dog [8]; [27],0.0232 mg/kg/day
same,LOAEL,dog [8]; [27],0.0232 mg/kg/day
same,NEL,dog [8]; [28],0.0172 mg/kg/day
same,NOAEL,dog [8]; [28],0.0172 mg/kg/day
same,LEL,rabbit; [29],0.5 mg/kg/day
same,LOAEL,rabbit; [29],> 10 mg/kg/day
same,NEL,rabbit; [29],0.05 mg/kg/day
same,NOAEL,rabbit; [29],≥ 10 mg/kg/day
same,LEL,rabbit; [30],0.5 mg/kg/day
same,LOAEL,rabbit; [30],0.5 mg/kg/day
same,NEL,rabbit; [30],0.05 mg/kg/day
same,NOAEL,rabbit; [30],0.05 mg/kg/day
same,LEL,mouse [9]; [18],6.7 mg/kg/day
same,LOAEL,mouse [9]; [18],6.7 mg/kg/day
same,NEL,mouse [9]; [24],0.13 mg/kg/day
same,NOAEL,mouse [9]; [24],0.13 mg/kg/day
same,LOAEL,"mouse [9]; group: systemic, systemic / in life observation / body weight / body weight gain + systemic / in life observation / clinical signs / pneumonia",210 mg/kg/day
same,LEL,mouse [9]; [31],210 mg/kg/day
same,NEL,mouse [9]; [31],6.7 mg/kg/day
same,NOAEL,mouse [9]; [31],6.7 mg/kg/day
O=C(NC(=O)c1c(F)cccc1F)Nc1ccc(OC(F)(F)C(F)OC(F)(F)F)c(Cl)c1 (centres undefined) [Novaluron],LOAEL,rat [10]; [32],74.2 mg/kg/day
same,NOAEL,rat [10]; [32],< 74.2 mg/kg/day
same,LEL,rat [10]; [33],74.2 mg/kg/day
same,NEL,rat [10]; [33],< 74.2 mg/kg/day
same,LOAEL,rat [10]; [34],74.2 mg/kg/day
same,NOAEL,rat [10]; [34],< 74.2 mg/kg/day
same,LEL,rat [10]; [35],74.2 mg/kg/day
same,NEL,rat [10]; [35],< 74.2 mg/kg/day
same,LEL,rat [10]; [36],895 mg/kg/day
same,LOAEL,rat [10]; [36],> 895 mg/kg/day
same,NEL,rat [10]; [36],298 mg/kg/day
same,NOAEL,rat [10]; [36],≥ 895 mg/kg/day
same,LEL,mouse [11],53.4 mg/kg/day
same,LOAEL,mouse [11],53.4 mg/kg/day
same,NEL,mouse [11],3.6 mg/kg/day
same,NOAEL,mouse [11],3.6 mg/kg/day
same,LEL,rat [12],8.64 mg/kg/day
same,LOAEL,rat [12],8.64 mg/kg/day
same,NEL,rat [12],4.38 mg/kg/day
same,NOAEL,rat [12],4.38 mg/kg/day
same,LOAEL,dog [13]; [37],100 mg/kg/day
same,NOAEL,dog [13]; [37],10 mg/kg/day
same,LEL,dog [13]; [38],10 mg/kg/day
same,NEL,dog [13]; [38],< 10 mg/kg/day
same,LEL,rat [14]; [39],4.7 mg/kg/day
same,NEL,rat [14]; [39],< 4.7 mg/kg/day
same,LOAEL,rat [14]; [40],818 mg/kg/day
same,NOAEL,rat [14]; [40],8.3 mg/kg/day
same,LOAEL,rat [15]; systemic / in life observation / clinical signs / anemia,30.6 mg/kg/day
same,NOAEL,rat [15]; systemic / in life observation / clinical signs / anemia + systemic / hematology / erythrocyte (rbc) count differential / erythrocyte (rbc…,1.1 mg/kg/day
same,LEL,rat [15]; [41],1.4 mg/kg/day
same,NEL,rat [15]; [41],< 1.4 mg/kg/day
same,LEL,mouse [16]; systemic / hematology / erythrocyte (rbc) count differential / erythrocyte (rbc) + systemic / hematology / hematocrit (hct) / hematocrit (…,15.2 mg/kg/day
same,LOAEL,mouse [16]; systemic / organ weight / spleen / absolute + systemic / organ weight / spleen / relative to body weight,136 mg/kg/day
same,NEL,mouse [16]; [42],4.7 mg/kg/day
same,NOAEL,mouse [16]; [42],15.2 mg/kg/day
